We go through ten compounds from patent US12371428B2 (Exelixis, Inc., priority 2019, dated 2025).

Structures can show the parent of a compound that is named as a salt. Some results are limits rather than exact numbers.

In assay [1] the target is Human MER (residues 528-999) (Homo sapiens (Human), UniProt Q12866). Kind of assay: Human Mer kinase assay, HTRF KinEase (Example C-2). The class given is biochemical. The conditions noted are these: protocol of Example C-2 (other compounds). In outline: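 Recombinant MER 528-999 (1 ng/well) in buffer with 5 mM MgCl2 and 1 mM DTT was reacted with biotinylated peptide and ATP at Km (40 μM) for 60 min at room temperature. EDTA stop with SA-XL665 and Eu3+ TK antibody, then 665/620 nm HTRF read; IC50 from 4-parameter fit.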

Assay [2] deals with Met (phospho-Met, HGF-stimulated PC-3 prostate cancer cells) (Homo sapiens (Human), UniProt P08581). Nature of the assay: Met autophosphorylation ELISA in PC-3 cells (Example F). The class given is cell-based. The conditions noted are these: cellular activity; Met autophosphorylation ELISA in PC-3 cells; read-out: c-Met IC50. In outline: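 Compounds were tested on HGF-stimulated PC-3 cells. After 24 h culture and 3 h serum starvation, cells got compound for 1 h and 100 ng/mL HGF for 10 min, and Met tyrosine phosphorylation was measured by ELISA.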
(An ELISA detects its analyte on a solid surface through an enzyme-linked reagent.)

Sequence of Met (phospho-Met, HGF-stimulated PC-3 prostate cancer cells) (P08581 25-1390): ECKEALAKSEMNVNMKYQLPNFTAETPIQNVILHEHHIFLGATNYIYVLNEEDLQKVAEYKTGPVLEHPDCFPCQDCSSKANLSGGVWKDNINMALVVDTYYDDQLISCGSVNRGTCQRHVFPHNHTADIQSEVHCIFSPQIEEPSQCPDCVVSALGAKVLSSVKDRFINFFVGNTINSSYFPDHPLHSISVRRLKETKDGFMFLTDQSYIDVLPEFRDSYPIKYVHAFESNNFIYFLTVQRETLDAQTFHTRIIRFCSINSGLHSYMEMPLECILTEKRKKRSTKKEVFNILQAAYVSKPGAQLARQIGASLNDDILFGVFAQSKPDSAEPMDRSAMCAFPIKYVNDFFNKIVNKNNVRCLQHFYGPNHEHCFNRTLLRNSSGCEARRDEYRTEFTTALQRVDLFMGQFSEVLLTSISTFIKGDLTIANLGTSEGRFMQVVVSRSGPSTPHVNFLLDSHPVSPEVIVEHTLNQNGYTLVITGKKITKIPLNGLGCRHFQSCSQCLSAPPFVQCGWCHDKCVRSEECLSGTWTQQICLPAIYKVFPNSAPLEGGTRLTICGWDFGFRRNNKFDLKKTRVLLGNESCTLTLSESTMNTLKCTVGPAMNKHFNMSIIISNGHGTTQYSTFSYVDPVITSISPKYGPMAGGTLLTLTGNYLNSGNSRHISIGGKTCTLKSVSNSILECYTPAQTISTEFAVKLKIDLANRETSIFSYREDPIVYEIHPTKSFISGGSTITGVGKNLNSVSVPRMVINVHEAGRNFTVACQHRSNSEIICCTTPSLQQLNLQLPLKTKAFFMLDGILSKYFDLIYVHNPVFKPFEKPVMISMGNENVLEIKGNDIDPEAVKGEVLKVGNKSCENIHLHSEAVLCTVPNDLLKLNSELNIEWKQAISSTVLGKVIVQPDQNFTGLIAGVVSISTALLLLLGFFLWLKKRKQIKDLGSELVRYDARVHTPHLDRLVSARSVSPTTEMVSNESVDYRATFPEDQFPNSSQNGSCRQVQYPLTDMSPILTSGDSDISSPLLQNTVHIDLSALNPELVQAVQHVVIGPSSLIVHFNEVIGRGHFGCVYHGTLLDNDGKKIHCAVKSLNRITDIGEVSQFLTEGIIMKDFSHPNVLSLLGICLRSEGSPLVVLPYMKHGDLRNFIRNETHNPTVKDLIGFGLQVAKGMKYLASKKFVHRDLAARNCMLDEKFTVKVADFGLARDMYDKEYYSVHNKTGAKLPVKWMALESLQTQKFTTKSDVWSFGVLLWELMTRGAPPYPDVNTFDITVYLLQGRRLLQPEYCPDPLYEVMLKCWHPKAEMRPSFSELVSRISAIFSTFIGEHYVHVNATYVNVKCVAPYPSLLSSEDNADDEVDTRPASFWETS
Sequence of Human MER (residues 528-999) (Q12866 528-999): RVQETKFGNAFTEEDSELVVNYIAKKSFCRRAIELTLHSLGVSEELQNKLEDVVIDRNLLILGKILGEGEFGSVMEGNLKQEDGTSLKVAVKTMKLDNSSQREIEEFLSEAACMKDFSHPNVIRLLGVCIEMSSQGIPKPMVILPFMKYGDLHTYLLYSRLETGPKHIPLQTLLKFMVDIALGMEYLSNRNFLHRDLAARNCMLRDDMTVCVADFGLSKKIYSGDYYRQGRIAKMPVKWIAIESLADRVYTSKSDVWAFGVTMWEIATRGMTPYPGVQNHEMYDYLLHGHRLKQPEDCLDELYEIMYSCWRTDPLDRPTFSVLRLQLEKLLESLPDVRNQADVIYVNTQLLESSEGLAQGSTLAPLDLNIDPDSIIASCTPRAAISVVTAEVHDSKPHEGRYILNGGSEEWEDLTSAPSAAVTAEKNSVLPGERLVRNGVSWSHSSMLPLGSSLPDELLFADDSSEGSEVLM

Turning to `COc1cnc2c(Oc3ccc(NC(=O)c4nnc(C)c(-c5ccc(F)cc5C)c4O)cc3F)ccnc2c1` (single isomer, unassigned) [Compound 249B, N-[3-Fluoro-4-[(7-methoxy-1,5-naphthyridin-4-yl)oxy]phenyl]-5-(4-fluoro-2-methylphenyl)-4-hydroxy-6-methylpyridazine-3-carboxamide], the IC50 in assay [1] and in assay [2] was below 0.1 µM throughout.

For the compound `COc1cnc2c(Oc3ccc(NC(=O)c4nnc(C)c(-c5ccc(F)cc5C)c4O)cc3F)ccnc2c1` (single isomer, unassigned) [Compound 249C, N-[3-Fluoro-4-[(7-methoxy-1,5-naphthyridin-4-yl)oxy]phenyl]-5-(4-fluoro-2-methylphenyl)-4-hydroxy-6-methylpyridazine-3-carboxamide], the half-maximal inhibitory concentration (IC50) in assay [1] and in assay [2] was below 0.1 µM throughout.

As for `COc1cc2nccc(Oc3ccc(NC(=O)c4cn(C(C)C)c(C)c(-c5cccc(F)c5)c4=O)cc3F)c2nc1OC` [Compound 30, N-[4-[(6,7-Dimethoxy-1,5-naphthyridin-4-yl)oxy]-3-fluorophenyl]-5-(3-fluorophenyl)-6-methyl-4-oxo-1-propan-2-ylpyridine-3-carboxamide hydrochloride], the IC50 in assay [1] and in assay [2] was below 0.1 µM each time.

Take `COc1ccc(-c2c(C)n(C(C)C)cc(C(=O)Nc3ccc(Oc4ccnc5cc(OC)c(OC)nc45)c(F)c3)c2=O)cc1` [Compound 31, N-[4-[(6,7-dimethoxy-1,5-naphthyridin-4-yl)oxy]-3-fluorophenyl]-5-(4-methoxyphenyl)-6-methyl-4-oxo-1-propan-2-ylpyridine-3-carboxamide hydrochloride]: the values for the IC50 in assay [1] and in assay [2] were below 0.1 µM and 0.1 to 0.3 µM, respectively.

Regarding `COc1cc2nccc(Oc3ccc(NC(=O)c4cn(C(C)C)c(C)c(-c5ccc(F)cc5C)c4=O)cc3F)c2nc1OC` [Compound 32, N-[4-[(6,7-Dimethoxy-1,5-naphthyridin-4-yl)oxy]-3-fluorophenyl]-5-(4-fluoro-2-methylphenyl)-6-methyl-4-oxo-1-propan-2-ylpyridine-3-carboxamide hydrochloride], the IC50 in assay [1] and in assay [2] was below 0.1 µM in each case.

`COc1cc2nccc(Oc3ccc(NC(=O)c4cn(C)cc(-c5ccccc5)c4=O)cc3F)c2nc1OC` [Compound 33, N-[4-[(6,7-Dimethoxy-1,5-naphthyridin-4-yl)oxy]-3-fluorophenyl]-1-methyl-4-oxo-5-phenylpyridine-3-carboxamide hydrochloride]: the IC50 in assay [1] and in assay [2] was below 0.1 µM in each case.

Take `COc1cc2nccc(Oc3ccc(NC(=O)c4cn(C)cc(-c5cccc(F)c5)c4=O)cc3F)c2nc1OC` [Compound 35, N-[4-[(6,7-Dimethoxy-1,5-naphthyridin-4-yl)oxy]-3-fluorophenyl]-5-(3-fluorophenyl)-1-methyl-4-oxopyridine-3-carboxamide hydrochloride]: the IC50 in assay [1] and in assay [2] was below 0.1 µM throughout.

Consider `COc1cc2nccc(Oc3ccc(NC(=O)c4cn(C)c(C)c(-c5ccccc5)c4=O)cc3F)c2nc1OC` [Compound 36, N-[4-[(6,7-Dimethoxy-1,5-naphthyridin-4-yl)oxy]-3-fluorophenyl]-1,6-dimethyl-4-oxo-5-phenylpyridine-3-carboxamide hydrochloride], for which the IC50 in assay [1] and in assay [2] was below 0.1 µM in each case.

`COc1cc2nccc(Oc3ccc(NC(=O)c4cn(C)c(C)c(-c5cccc(F)c5)c4=O)cc3F)c2nc1OC` [Compound 37, N-[4-[(6,7-Dimethoxy-1,5-naphthyridin-4-yl)oxy]-3-fluorophenyl]-5-(3-fluorophenyl)-1,6-dimethyl-4-oxopyridine-3-carboxamide hydrochloride]: the IC50 in assay [1] and in assay [2] was below 0.1 µM in each case.

On to `COc1cnc2c(Oc3ccc(NC(=O)c4cnc(C)c(-c5ccc(F)cc5C)c4O)cc3)ccnc2c1` [Compound 176, 5-(4-Fluoro-2-methylphenyl)-4-hydroxy-N-[4-[(7-methoxy-1,5-naphthyridin-4-yl)oxy]phenyl]-6-methylpyridine-3-carboxamide], for which the IC50 in assay [1] and in assay [2] was below 0.1 µM throughout.
